PMC2964301, “Human α3β4 Neuronal Nicotinic Receptors Show Different Stoichiometry if They Are Expressed in Xenopus Oocytes or Mammalian HEK293 Cells” (PLoS ONE, 2010)

Assays:
Assay type in all cases: cell-based
[1] = target: T1, human α3β4 nicotinic receptor in Xenopus oocytes, 9:1 α:β cRNA (putative three-α form) (Homo sapiens, UniProt P30926+P32297); experiment: two-electrode voltage clamp, extrapolated from low-concentration potency ratio; conditions: agonist, unreliable (extrapolated assuming identical efficacy to ACh)
T1 construct: gene CHRNA3; untagged; Xenopus laevis oocytes, 9:1 α:β cRNA; heteropentamer, putative (α3)3(β4)2
T1 sequence (P30926 22-498): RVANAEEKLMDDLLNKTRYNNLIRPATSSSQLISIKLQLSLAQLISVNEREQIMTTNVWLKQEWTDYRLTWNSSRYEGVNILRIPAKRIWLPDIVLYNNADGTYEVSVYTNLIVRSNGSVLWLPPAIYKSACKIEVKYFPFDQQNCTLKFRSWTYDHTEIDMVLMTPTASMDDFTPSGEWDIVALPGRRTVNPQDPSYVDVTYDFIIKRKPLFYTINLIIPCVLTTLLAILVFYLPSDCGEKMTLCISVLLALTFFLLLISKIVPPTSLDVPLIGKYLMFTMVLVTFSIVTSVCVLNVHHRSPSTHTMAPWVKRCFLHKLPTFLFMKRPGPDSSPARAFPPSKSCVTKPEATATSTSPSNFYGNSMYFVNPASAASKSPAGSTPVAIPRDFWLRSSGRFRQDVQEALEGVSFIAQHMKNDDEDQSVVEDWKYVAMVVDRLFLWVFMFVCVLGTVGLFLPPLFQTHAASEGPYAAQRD
T1 sequence (P32297 32-505): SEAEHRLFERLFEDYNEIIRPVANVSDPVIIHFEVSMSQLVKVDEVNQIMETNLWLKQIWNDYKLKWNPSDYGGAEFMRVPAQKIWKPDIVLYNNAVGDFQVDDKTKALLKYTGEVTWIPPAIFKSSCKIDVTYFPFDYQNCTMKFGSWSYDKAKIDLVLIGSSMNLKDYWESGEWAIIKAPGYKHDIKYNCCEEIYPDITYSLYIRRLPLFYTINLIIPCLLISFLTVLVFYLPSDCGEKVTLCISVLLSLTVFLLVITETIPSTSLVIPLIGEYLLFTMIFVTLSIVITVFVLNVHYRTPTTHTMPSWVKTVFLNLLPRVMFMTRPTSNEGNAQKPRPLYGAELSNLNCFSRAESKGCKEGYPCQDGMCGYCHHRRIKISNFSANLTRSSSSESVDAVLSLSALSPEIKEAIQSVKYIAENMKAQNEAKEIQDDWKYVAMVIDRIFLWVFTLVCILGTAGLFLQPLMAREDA

[2] = target: T2, human α3β4 nicotinic receptor in Xenopus oocytes, 1:9 α:β cRNA (putative two-α form) (Homo sapiens, UniProt P30926+P32297); experiment: as above; conditions: agonist, unreliable (extrapolated assuming identical efficacy to ACh)
T2 construct: gene CHRNA3; untagged; Xenopus laevis oocytes, 1:9 α:β cRNA; heteropentamer, putative (α3)2(β4)3
Target sequence in this assay (P30926 22-498): as the sequence (P30926 22-498) above
Target sequence in this assay (P32297 32-505): as the sequence (P32297 32-505) above

[3] = target: T2, human α3β4 nicotinic receptor in Xenopus oocytes, 1:9 α:β cRNA (putative two-α form); experiment: two-electrode voltage clamp, partial dose-response curves; conditions: agonist, -70 mV, pH 7.2, nominally Ca-free, 0.5 µM atropine, 18°C, low concentrations
Text: two-electrode voltage clamp, partial dose-response curves on human α3β4 nicotinic receptor in Xenopus oocytes, 1:9 α:β cRNA (putative two-α form)

Question: `C[N+]1(C)CCN(c2ccccc2)CC1` [DMPP, 1,1-dimethyl-4-phenylpiperazinium iodide] was tested. Which “EC 50” value [1] did it give?
Answer: ~ 30 µM

Question: What about the “EC 50” value [2] of the same compound?
Answer: ~ 140 µM

Question: `C[N+](C)(C)CCOC(N)=O` [carbachol] was tested. Which Potency ratio [3] did it give?
Answer: 0.094±0.003

Question: `O=c1cccc2n1C[C@@H]1CNC[C@H]2C1` [cytisine] was tested. Which Potency ratio [3] did it give?
Answer: 1.40±0.15

Question: How did the Potency ratio [3] turn out when `Clc1ccc(C2CC3CCC2N3)cn1` (stereo not shown) [epibatidine] was run?
Answer: 6290±815

Question: With `CN1[C@@H](CC(=O)c2ccccc2)CCC[C@H]1C[C@H](O)c1ccccc1` [lobeline] as the compound, how does the Potency ratio [3] read?
Answer: 7.35±0.56

Question: With `CN1CCC[C@H]1c1cccnc1` [nicotine] as the compound, how does the Potency ratio [3] read?
Answer: 1.43±0.14
